We go through eleven molecules from ChEMBL document CHEMBL3797024, “Exploring new chemical functionalities to improve aromatase inhibition of steroids” (Bioorg Med Chem, 2016).

Assay [1] concerns the target T1, Aromatase (Homo sapiens, UniProt P11511).
T1 sequence (P11511 whole entry): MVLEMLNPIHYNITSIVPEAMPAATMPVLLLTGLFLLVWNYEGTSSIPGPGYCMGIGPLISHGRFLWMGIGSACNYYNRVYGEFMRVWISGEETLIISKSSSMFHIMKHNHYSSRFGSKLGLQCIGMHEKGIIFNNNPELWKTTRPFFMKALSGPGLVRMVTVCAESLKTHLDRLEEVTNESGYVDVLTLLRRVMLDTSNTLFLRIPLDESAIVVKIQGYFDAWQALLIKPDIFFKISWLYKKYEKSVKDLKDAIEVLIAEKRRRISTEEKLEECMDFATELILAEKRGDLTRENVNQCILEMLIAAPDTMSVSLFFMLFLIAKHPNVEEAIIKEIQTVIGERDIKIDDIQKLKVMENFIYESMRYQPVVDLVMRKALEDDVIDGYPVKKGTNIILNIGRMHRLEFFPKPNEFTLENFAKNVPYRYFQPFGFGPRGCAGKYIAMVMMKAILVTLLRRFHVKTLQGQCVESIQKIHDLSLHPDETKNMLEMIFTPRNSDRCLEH
Kind of assay: Inhibition of human placental aromatase expressed in human MCF7 cells using [1beta-3H]-androstenedione as substrate assessed as tritiated H2O release at 10 uM after 1 hr by liquid scintillation counting method in presence of progesterone relative to control. It is filed as cell-based.

For assay [2], the target named is T1, Aromatase. Kind of assay: Inhibition of aromatase in human placental microsomes using [1beta-3H]-androstenedione as substrate assessed as tritiated H2O release at 2 uM after 15 mins by liquid scintillation counting method relative to control. The note with it: 0.25 h. On the set-up: species or system Placenta.
Assay [3] has as its target T1, Aromatase. Nature of the assay: Inhibition of aromatase in human placental microsomes using [1beta-3H]-androstenedione as substrate assessed as tritiated H2O release after 15 mins by liquid scintillation counting method. On the set-up: species or system Placenta.
Assay [4] has as its target T1, Aromatase. Kind of assay: Inhibition of aromatase in human placental microsomes using [1beta-3H]-androstenedione as substrate assessed as tritiated H2O release at 0.5 uM after 15 mins by liquid scintillation counting method relative to control. More on the design: species or system Placenta. To be noted: 0.25 h.
For assay [5], the target named is T1, Aromatase. Nature of the assay: Inhibition of human placental aromatase expressed in human MCF7 cells using [1beta-3H]-androstenedione as substrate at 1 uM after 1 hr by liquid scintillation counting method in presence of progesterone relative to control. The class given is cell-based.

Usually inhibition stands for the share of the control response that was lost under treatment. On to `C[C@]12CCC=C[C@@H]1CC[C@@H]1[C@@H]2CC[C@]2(C)C(=O)CC[C@@H]12`, for which the inhibition at 10 µM on Aromatase [1] came to 56.9%.

For `C[C@]12CC[C@H]3O[C@H]3[C@@H]1CC[C@@H]1[C@@H]2CC[C@]2(C)C(=O)CC[C@@H]12`, the inhibition at 10 µM at Aromatase [1] amounted to 80.4%.

Take `C[C@]12CCCC=C1CC[C@@H]1[C@@H]2CC[C@]2(C)C(=O)CC[C@@H]12`: the inhibition at 10 µM at Aromatase [1] came out at 62.6%.

`C[C@]12CC[C@H]3[C@@H](CC[C@@]45O[C@@H]4CCC[C@]35C)[C@@H]1CCC2=O`: on Aromatase [1], the inhibition at 10 µM worked out at 53.2%.

Consider `C=CC[C@@H]1CC2=CC(=O)C=C[C@]2(C)[C@H]2CC[C@]3(C)C(=O)CC[C@H]3[C@H]12`, for which, at Aromatase [2], the inhibition at 2 µM was found to be 94.5%. In addition, the inhibition at 10 µM at Aromatase [1] came to 94.2%.

On to `C[C@]12C=CC(=O)C=C1C[C@@H](CC1CO1)[C@@H]1[C@@H]2CC[C@]2(C)C(=O)CC[C@@H]12` (some centres undefined), for which the inhibition at 2 µM at Aromatase [2] was 76.3%. Moreover, the inhibition at 10 µM at Aromatase [1] amounted to 72.3%.

What is called IC50 is the concentration needed to halve the response being measured. In the case of `C[C@]12CC[C@H]3C[C@H]3[C@@H]1CC[C@@H]1[C@@H]2CC[C@]2(C)C(=O)CC[C@@H]12`, the inhibition at 2 µM on Aromatase [2] was 95.3%. For the same molecule, the inhibition at 10 µM on Aromatase [1] came out at 89.3%. Besides, the IC50 on Aromatase [3] stood at 110 nM.

Turning to `C[C@]12CCC(=O)C=C1CC[C@@H]1C2=CC[C@]2(C)C(=O)CC[C@@H]12`, the inhibition at 2 µM at Aromatase [2] was determined as 95.2%. The inhibition at 10 µM at Aromatase [1] came to 96.4%.

In the case of `C[C@]12CC[C@H]3[C@@H](CC[C@]45O[C@H]4CCC[C@]35C)[C@@H]1CCC2=O`, at Aromatase [2], the inhibition at 2 µM was 85.5%. For the same molecule, the inhibition at 10 µM on Aromatase [1] turned out to be 64.8%. Further, the half-inhibitory concentration (IC50) at Aromatase [3] was 530 nM.

`C[C@]12CCC3=C(OCCO3)C1=CC[C@@H]1[C@@H]2CC[C@]2(C)C(=O)CC[C@@H]12`: the inhibition at 2 µM at Aromatase [2] came to 55.9%.

As to `C[C@]12CCC(=O)C(O)=C1CC[C@@H]1[C@@H]2CC[C@]2(C)C(=O)CC[C@@H]12` [FORMESTANE], the inhibition at 0.5 µM on Aromatase [4] worked out at 99.2%. In addition, the inhibition at 1 µM at Aromatase [5] amounted to 96.1%.
